Experimental data: ChEMBL document CHEMBL1909046, “DrugMatrix in vitro pharmacology data”

Assays:
[1] = DRUGMATRIX: Potassium Channel [KATP] radioligand binding (ligand: [3H] Glyburide); type: cell membranes, Membrane; settings: hit-t15; Not Active = under 50% inhibition at 10 µM
[2] = molecular target: Mitogen-activated protein kinase 3 (Homo sapiens, UniProt P27361); test: DRUGMATRIX: Protein Serine/Threonine Kinase, ERK1 enzyme inhibition (substrate: Myelin Basic Protein); design: species or system Escherichia coli; settings: Not Active = under 50% inhibition at 10 µM
Mitogen-activated protein kinase 3, sequence (P27361 whole entry): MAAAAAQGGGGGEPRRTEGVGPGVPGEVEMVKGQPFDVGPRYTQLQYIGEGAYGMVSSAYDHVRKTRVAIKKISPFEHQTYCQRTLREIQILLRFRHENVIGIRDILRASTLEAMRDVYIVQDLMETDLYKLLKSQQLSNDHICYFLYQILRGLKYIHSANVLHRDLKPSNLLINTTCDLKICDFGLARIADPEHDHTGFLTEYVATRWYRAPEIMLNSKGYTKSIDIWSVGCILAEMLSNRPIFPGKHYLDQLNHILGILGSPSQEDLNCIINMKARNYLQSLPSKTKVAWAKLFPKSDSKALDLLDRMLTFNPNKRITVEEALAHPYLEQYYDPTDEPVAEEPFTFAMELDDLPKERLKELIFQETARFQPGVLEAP

[3] = molecular target: Epidermal growth factor receptor (Homo sapiens, UniProt P00533); test: DRUGMATRIX: Protein Tyrosine Kinase, EGF Receptor enzyme inhibition (substrate: Poly(Glu:Tyr)); type: cell-based, Insect cells; settings: Not Active = under 50% inhibition at 10 µM
Epidermal growth factor receptor, sequence (P00533 whole entry): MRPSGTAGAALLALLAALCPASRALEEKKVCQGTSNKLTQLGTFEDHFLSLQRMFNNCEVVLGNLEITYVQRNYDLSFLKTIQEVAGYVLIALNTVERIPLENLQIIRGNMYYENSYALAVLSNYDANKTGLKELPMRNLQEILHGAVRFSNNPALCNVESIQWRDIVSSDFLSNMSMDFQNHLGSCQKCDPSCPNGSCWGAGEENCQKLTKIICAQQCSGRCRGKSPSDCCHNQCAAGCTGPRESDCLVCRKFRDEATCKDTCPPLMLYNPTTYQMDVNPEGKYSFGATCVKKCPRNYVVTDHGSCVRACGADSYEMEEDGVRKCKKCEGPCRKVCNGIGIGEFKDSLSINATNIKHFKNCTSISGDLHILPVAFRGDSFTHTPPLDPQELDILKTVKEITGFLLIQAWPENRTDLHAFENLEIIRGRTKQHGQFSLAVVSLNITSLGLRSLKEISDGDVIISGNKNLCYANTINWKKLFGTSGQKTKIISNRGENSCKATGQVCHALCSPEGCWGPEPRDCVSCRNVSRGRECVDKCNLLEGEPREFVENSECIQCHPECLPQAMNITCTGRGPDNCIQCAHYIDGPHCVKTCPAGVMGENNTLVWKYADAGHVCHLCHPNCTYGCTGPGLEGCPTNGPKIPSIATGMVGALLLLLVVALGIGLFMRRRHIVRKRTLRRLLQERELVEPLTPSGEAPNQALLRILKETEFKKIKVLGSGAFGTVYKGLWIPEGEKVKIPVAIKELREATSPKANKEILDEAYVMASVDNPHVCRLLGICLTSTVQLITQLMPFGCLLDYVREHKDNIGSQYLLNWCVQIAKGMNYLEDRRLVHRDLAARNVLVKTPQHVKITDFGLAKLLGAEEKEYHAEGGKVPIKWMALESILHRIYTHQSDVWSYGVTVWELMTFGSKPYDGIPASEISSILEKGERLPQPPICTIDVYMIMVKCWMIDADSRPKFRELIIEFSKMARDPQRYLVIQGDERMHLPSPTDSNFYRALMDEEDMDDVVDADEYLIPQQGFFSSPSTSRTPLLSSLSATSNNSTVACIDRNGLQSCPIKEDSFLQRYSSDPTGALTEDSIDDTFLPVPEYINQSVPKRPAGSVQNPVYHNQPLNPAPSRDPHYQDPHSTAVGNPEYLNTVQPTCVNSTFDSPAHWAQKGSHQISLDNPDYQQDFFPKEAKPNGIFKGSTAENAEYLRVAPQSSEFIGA

Vasopressin V1a receptor = Vasopressin V1a receptor (Homo sapiens, UniProt P37288); type: cell membranes, Membrane; settings: hek293; further: in other assays of this panel Not Active means under 50% inhibition at 10 µM
Vasopressin V1a receptor, sequence (P37288 whole entry): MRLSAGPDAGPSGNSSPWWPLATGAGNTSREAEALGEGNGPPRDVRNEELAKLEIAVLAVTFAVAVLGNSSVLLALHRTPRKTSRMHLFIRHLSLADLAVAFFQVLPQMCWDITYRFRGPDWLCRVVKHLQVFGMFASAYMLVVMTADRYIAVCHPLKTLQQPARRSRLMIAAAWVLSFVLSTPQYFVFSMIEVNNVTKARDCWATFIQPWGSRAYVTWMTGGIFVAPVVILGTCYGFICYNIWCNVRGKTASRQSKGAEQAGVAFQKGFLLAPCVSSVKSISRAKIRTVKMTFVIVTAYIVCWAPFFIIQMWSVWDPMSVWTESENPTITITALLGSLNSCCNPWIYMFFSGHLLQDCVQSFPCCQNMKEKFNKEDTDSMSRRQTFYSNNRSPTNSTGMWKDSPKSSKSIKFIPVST

[4] = molecular target: Voltage-gated inwardly rectifying potassium channel KCNH2 (Homo sapiens, UniProt Q12809); settings: hek293; further: in other assays of this panel Not Active means under 50% inhibition at 10 µM
Voltage-gated inwardly rectifying potassium channel KCNH2, sequence (Q12809 whole entry): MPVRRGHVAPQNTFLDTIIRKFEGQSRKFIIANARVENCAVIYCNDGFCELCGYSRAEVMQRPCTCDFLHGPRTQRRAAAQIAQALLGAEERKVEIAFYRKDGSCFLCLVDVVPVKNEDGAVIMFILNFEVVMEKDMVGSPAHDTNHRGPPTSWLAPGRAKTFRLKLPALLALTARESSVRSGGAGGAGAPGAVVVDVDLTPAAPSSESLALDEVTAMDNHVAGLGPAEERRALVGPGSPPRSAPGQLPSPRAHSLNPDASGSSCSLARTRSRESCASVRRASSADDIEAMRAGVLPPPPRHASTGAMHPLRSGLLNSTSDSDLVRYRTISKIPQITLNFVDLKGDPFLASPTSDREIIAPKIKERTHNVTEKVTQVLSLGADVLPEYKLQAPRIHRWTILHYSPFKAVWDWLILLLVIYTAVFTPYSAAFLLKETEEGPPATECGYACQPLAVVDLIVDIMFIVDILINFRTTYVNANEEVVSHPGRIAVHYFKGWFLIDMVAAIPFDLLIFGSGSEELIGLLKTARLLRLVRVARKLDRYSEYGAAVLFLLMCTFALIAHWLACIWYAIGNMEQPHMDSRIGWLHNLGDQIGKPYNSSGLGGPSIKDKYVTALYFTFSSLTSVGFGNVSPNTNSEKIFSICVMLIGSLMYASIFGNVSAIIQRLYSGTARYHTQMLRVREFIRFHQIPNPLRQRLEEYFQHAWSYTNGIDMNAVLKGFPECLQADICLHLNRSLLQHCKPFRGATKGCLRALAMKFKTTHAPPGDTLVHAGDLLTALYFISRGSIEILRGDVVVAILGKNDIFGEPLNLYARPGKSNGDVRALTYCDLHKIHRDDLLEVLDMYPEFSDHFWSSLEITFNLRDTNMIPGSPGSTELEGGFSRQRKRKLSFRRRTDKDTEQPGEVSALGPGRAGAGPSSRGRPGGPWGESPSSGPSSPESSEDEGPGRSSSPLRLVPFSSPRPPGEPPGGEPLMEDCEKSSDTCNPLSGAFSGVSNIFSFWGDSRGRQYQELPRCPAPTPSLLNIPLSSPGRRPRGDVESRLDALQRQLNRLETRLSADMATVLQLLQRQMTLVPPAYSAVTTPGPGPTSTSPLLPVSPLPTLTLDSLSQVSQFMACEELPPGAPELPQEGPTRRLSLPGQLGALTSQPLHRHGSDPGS

[5] = molecular target: Sodium-dependent noradrenaline transporter (Homo sapiens, UniProt P23975); test: DRUGMATRIX: Norepinephrine Transporter radioligand binding (ligand: [125I] RTI-55); type: cell membranes, MDCK, Membrane; settings: Not Active = under 50% inhibition at 10 µM; for Ki: read-out: Ki
Sodium-dependent noradrenaline transporter, sequence (P23975 whole entry): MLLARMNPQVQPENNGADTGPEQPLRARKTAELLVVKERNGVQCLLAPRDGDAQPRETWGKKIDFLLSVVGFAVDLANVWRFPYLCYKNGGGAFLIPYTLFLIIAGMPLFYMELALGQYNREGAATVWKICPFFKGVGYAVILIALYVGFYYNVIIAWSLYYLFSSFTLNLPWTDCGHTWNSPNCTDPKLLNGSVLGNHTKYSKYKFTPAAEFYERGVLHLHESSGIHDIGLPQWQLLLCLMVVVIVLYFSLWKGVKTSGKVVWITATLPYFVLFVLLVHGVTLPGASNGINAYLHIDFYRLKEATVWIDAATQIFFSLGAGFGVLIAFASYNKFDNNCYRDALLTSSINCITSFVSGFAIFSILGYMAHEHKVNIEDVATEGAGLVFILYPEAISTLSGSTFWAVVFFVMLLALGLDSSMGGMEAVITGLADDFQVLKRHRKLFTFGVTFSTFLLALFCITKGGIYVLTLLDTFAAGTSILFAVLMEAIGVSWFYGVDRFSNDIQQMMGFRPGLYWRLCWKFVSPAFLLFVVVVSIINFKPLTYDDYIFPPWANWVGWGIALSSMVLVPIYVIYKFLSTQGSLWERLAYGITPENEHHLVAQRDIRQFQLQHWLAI

Compound	IC50 [1]	Ki [1]	IC50 [2]	IC50 ([3]; read-out: IC50) [µM]	IC50 (Vasopressin V1a receptor)	IC50 [4]	Ki [4]	IC50 ([5]; read-out: IC50) [µM]	Ki [5] [µM]	IC50 ([3]; insect cells)	IC50 ([5]; mdck)	IC50 ([2]; read-out: IC50) [µM]
CCOc1nc2cccc(C(=O)O)c2n1Cc1ccc(-c2ccccc2-c2nnn[nH]2)cc1	Not Active	Not Active	Not Active	3.28	Not Active	Not Active	Not Active	3.07	3.04			
O=C(O)CCCc1cccs1	Not Active	Not Active	Not Active		Not Active	Not Active	Not Active			Not Active	Not Active	
COc1ccccc1N	Not Active	Not Active	Not Active		Not Active	Not Active	Not Active			Not Active	Not Active	
O=C(c1ccccc1F)N1CCC(Cc2ccccc2)CC1	Not Active	Not Active	Not Active		Not Active	Not Active	Not Active			Not Active	Not Active	
Cc1c(O)cccc1C(=O)N[C@@H](CSc1ccccc1)[C@H](O)CN1C[C@H]2CCCC[C@H]2C[C@H]1C(=O)NC(C)(C)C	Not Active	Not Active		55.6	Not Active	Not Active	Not Active	8.85	8.78			22.5
CC(O)COC[C@H]1O[C@@H]2O[C@H]3[C@H](O)[C@@H](O)[C@@H](O[C@H]4[C@H](O)[C@@H](O)[C@@H](O[C@H]5[C@H](O)[C@@H](O)[C@@H](O[C@H]6[C@H](O)[C@@H](O)[C@@H](O[C@H]7[C@H](O)[C@@H](O)[C@@H](O[C@H]8[C@H](O)[C@@H](O)[C@@H](O[C@H]1[C@H](O)[C@H]2O)O[C@@H]8COCC(C)O)O[C@@H]7COCC(C)O)O[C@@H]6COCC(C)O)O[C@@H]5COCC(C)O)O[C@@H]4COCC(C)O)O[C@@H]3COCC(C)O (stereo partly drawn) [2-HYDROXYPROPYL-BETA-CYCLODEXTRIN]	Not Active	Not Active	Not Active		Not Active	Not Active	Not Active	1.27	1.26	Not Active		
NC(=O)c1cccc(N)c1 [3-AMINOBENZAMIDE]	Not Active	Not Active	Not Active		Not Active	Not Active	Not Active			Not Active	Not Active	
C[C@H]1O[C@H](O[C@H]2[C@H](O)[C@@H](O)[C@@H](O[C@H]3[C@H](O)[C@@H](O)C(O)O[C@@H]3CO)O[C@@H]2CO)[C@H](O)[C@@H](O)[C@@H]1N[C@H]1C=C(CO)[C@@H](O)[C@H](O)[C@H]1O (stereo not given in full) [ACARBOSE]	Not Active	Not Active	Not Active		Not Active	Not Active	Not Active			Not Active	Not Active	
CC[C@H]1[C@@H]2C[C@H]3[C@@H]4N(C)c5ccccc5[C@]45C[C@@H]([C@@H]2[C@H]5O)N3[C@@H]1O [AJMALINE]	Not Active	Not Active	Not Active		Not Active	Not Active	Not Active			Not Active	Not Active	
NC12CC3CC(CC(C3)C1)C2 [AMANTADINE]	Not Active	Not Active	Not Active		Not Active	Not Active	Not Active			Not Active	Not Active	
NCCCNCCSP(=O)(O)O [AMIFOSTINE]	Not Active	Not Active	Not Active		Not Active	Not Active	Not Active			Not Active	Not Active	
CN(C)CCC=C1c2ccccc2CCc2ccccc21 [AMITRIPTYLINE]	Not Active	Not Active	Not Active		Not Active					Not Active		
CC(=O)Oc1ccccc1C(=O)O [ASPIRIN]	Not Active	Not Active	Not Active		Not Active	Not Active	Not Active			Not Active	Not Active	
CC(C)c1c(C(=O)Nc2ccccc2)c(-c2ccccc2)c(-c2ccc(F)cc2)n1CC[C@@H](O)C[C@@H](O)CC(=O)O [ATORVASTATIN]	Not Active	Not Active	Not Active		Not Active					Not Active	Not Active	
CC(=O)OC[C@H]1O[C@@H](n2ncc(=O)[nH]c2=O)[C@H](OC(C)=O)[C@@H]1OC(C)=O [AZARIBINE]	Not Active	Not Active	Not Active		Not Active	Not Active	Not Active			Not Active	Not Active	
C[C@H]1[C@H](NC(=O)/C(=N\OC(C)(C)C(=O)O)c2csc(N)n2)C(=O)N1S(=O)(=O)O [AZTREONAM]	Not Active	Not Active	Not Active		Not Active	Not Active	Not Active			Not Active	Not Active	

Compound	IC50 [1]	Ki [1]	IC50 [2]	IC50 ([3]; read-out: IC50) [µM]	IC50 (Vasopressin V1a receptor)	IC50 [4]	Ki [4]	IC50 ([5]; read-out: IC50) [µM]	Ki [5] [µM]	IC50 ([3]; insect cells)	IC50 ([5]; mdck)	IC50 ([2]; read-out: IC50) [µM]
O=C(O)CCNC(=O)c1ccc(/N=N/c2ccc(O)c(C(=O)O)c2)cc1 [BALSALAZIDE]	Not Active	Not Active	Not Active		Not Active	Not Active	Not Active			Not Active	Not Active	
COc1cc(OC)c(C(=O)CCCN2CCCC2)c(OC)c1 [BUFLOMEDIL]	Not Active	Not Active	Not Active		Not Active	Not Active	Not Active			Not Active	Not Active	
Cn1c(=O)c2c(ncn2C)n(C)c1=O [CAFFEINE]	Not Active	Not Active	Not Active		Not Active	Not Active	Not Active				Not Active	
ClC(Cl)(Cl)Cl [CARBON TETRACHLORIDE]	Not Active	Not Active	Not Active		Not Active	Not Active	Not Active			Not Active	Not Active	
CO/N=C(\C(=O)N[C@@H]1C(=O)N2C(C(=O)O)=C(COC(C)=O)CS[C@H]12)c1csc(N)n1 [CEFOTAXIME]	Not Active	Not Active			Not Active	Not Active	Not Active			Not Active	Not Active	
CNC1=Nc2ccc(Cl)cc2C(c2ccccc2)=[N+]([O-])C1 [CHLORDIAZEPOXIDE]	Not Active	Not Active	Not Active		Not Active	Not Active	Not Active			Not Active	Not Active	
Cc1cc(O)cc(C)c1Cl [CHLOROXYLENOL]	Not Active	Not Active	Not Active		Not Active	Not Active	Not Active			Not Active	Not Active	
CCCNC(=O)NS(=O)(=O)c1ccc(Cl)cc1 [CHLORPROPAMIDE]	Not Active	Not Active	Not Active		Not Active	Not Active	Not Active			Not Active	Not Active	
NS(=O)(=O)c1cc(C2(O)NC(=O)c3ccccc32)ccc1Cl (stereo not given) [CHLORTHALIDONE]	Not Active	Not Active	Not Active		Not Active	Not Active	Not Active			Not Active	Not Active	
C#C[C@]1(O)CC[C@H]2[C@@H]3CCC4=CC(=O)CC[C@]4(C)[C@H]3CC[C@@]21C [ETHISTERONE]	Not Active	Not Active	Not Active		Not Active					Not Active	Not Active	
CC(C)(C(=O)O)c1ccc(C(O)CCCN2CCC(C(O)(c3ccccc3)c3ccccc3)CC2)cc1 (stereo not given) [FEXOFENADINE]	Not Active	Not Active	Not Active		Not Active					Not Active	Not Active	
O=c1c(-c2ccc(O)cc2)coc2cc(O)cc(O)c12 [GENISTEIN]	Not Active	Not Active	Not Active		Not Active	Not Active	Not Active				Not Active	
C[C@H]1COc2c(N3CCN(C)CC3)c(F)cc3c(=O)c(C(=O)O)cn1c23.C[C@H]1COc2c(N3CCN(C)CC3)c(F)cc3c(=O)c(C(=O)O)cn1c23.O [LEVOFLOXACIN]	Not Active	Not Active	Not Active		Not Active	Not Active	Not Active			Not Active		
CCn1cc(C(=O)O)c(=O)c2cc(F)c(N3CCNC(C)C3)c(F)c21 (stereo not given) [LOMEFLOXACIN]			Not Active		Not Active					Not Active	Not Active	
C[C@@H]1O[C@@H](O[C@H]2C[C@@H](O)[C@]3(CO)[C@H]4[C@H](O)C[C@]5(C)[C@@H](C6=CC(=O)OC6)CC[C@]5(O)[C@@H]4CC[C@]3(O)C2)[C@H](O)[C@H](O)[C@H]1O [OUABAIN]	Not Active	Not Active	Not Active		Not Active	Not Active	Not Active			Not Active		
N=C(N)c1ccc(OCCCCCOc2ccc(C(=N)N)cc2)cc1 [PENTAMIDINE]	Not Active	Not Active	Not Active		Not Active			2.21	2.2	Not Active		
